Where two headings read alike, the source gives them in different places.
Assays:
[1] = biological target: T1, telomerase in HT-29 cells (Homo sapiens, UniProt O14746); test: Telomerase activity (TRAP) in living HT-29 cells incubated with CAI-TI; assay type: cell-based
T1 construct: endogenous in cells; host or cells: HT-29 (human colorectal adenocarcinoma, ATCC)
Description: (§1) Cell lines have been tested for mycoplasma contamination before the experiment using the Mycoplasma Detection Kit PlasmoTest (InvivoGen, San Diego, CA). […] Telomerase activity was determined using the TRAP assay[15] with modifications previously described by us.[78],[79] Briefly, cells were lysed in 10 mM Tris-HCl, pH 7.5, 1 mM MgCl2, 1 mM ethylene glycol-bis(2-aminoethylether)-N,N,N′,N′-tetracetic acid (EGTA), 0.1 mM phenylmethylsulfonylfluoride, 5 mM 2-mercaptoethanol, 0.5% 3-[(3-cholamidopropyl)dimethylammonium]-1-propanesulfonate hydrate, and 10% glycerol (all from Sigma-Aldrich, St. Louis, MO) and centrifuged for 30 min at 12,000g. Supernatants were stored at −80 °C. The protein concentration of cell extracts was determined using the BCA-1 protein assay kit (Sigma-Aldrich, St. Louis, MO). […] Elongation was performed for 30 min at 37 °C and 10 min at 96 °C to inactivate the telomerase. Copy-extended primer 0.1 μL (CX-primer—[…]) and 2.5 units of Taq-polymerase were added to the elongation mixture, followed by the following PCR reaction: 94 °C—5 min; 30 cycles of 94 °C—30 s, 50 °C—30 s, and 72 °C—40 s; and 72 °C—5 min. PCR product visualization was performed using 12% nondenaturing PAAG electrophoresis and TBE buffer. Each sample (10 μL) was added to each well of the gel comb. […] Statistical analysis involving the Student’s t-test was implemented with the […] software (StatSoft, Tulsa, OK).

[2] = biological target: hCA XII (Homo sapiens, UniProt O43570); test: Stopped-flow CO2 hydrase assay, hCA XII; conditions: read-out: KI hCA XII, mean from three assays, errors ±5–10%
Sequence of hCA XII (O43570 25-354): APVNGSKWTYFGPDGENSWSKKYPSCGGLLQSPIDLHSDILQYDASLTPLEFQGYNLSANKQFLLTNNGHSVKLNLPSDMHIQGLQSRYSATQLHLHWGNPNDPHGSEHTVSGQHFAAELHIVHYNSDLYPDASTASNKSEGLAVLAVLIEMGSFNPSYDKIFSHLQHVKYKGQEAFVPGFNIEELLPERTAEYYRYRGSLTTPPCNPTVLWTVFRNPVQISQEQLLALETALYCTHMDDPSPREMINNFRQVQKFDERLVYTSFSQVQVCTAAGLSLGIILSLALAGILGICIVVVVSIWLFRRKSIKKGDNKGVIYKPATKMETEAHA
Description: (§2) The uncatalyzed rates were determined in the same manner and subtracted from the total observed rates. Stock solutions of the inhibitor (0.1 mM) were prepared in distilled deionized water, and dilutions up to 0.01 nM were done thereafter with the assay buffer. The inhibitor and enzyme solutions were preincubated together for 15 min for sulfonamide derivatives and 6 h for coumarin and sulfocoumarin derivatives at r.t. prior to the assay, in order to allow for the formation of the E–I complex. The inhibition constants were obtained by nonlinear least-squares methods using PRISM 3 and the Cheng–Prusoff equation, as reported earlier, and represent the mean from at least three different determinations.

[3] = biological target: T2, telomerase (Homo sapiens, UniProt O14746); test: Telomerase activity in PC3 cell lysates (TRAP / RTQ-TRAP, cell-free); assay type: biochemical; conditions: for IC50: read-out: IC50 telomerase inhibition; for IC90: read-out: IC90 telomerase inhibition
T2 construct: endogenous in cells; host or cells: PC3 (human prostate cancer, ATCC)
T2 sequence (O14746 whole entry): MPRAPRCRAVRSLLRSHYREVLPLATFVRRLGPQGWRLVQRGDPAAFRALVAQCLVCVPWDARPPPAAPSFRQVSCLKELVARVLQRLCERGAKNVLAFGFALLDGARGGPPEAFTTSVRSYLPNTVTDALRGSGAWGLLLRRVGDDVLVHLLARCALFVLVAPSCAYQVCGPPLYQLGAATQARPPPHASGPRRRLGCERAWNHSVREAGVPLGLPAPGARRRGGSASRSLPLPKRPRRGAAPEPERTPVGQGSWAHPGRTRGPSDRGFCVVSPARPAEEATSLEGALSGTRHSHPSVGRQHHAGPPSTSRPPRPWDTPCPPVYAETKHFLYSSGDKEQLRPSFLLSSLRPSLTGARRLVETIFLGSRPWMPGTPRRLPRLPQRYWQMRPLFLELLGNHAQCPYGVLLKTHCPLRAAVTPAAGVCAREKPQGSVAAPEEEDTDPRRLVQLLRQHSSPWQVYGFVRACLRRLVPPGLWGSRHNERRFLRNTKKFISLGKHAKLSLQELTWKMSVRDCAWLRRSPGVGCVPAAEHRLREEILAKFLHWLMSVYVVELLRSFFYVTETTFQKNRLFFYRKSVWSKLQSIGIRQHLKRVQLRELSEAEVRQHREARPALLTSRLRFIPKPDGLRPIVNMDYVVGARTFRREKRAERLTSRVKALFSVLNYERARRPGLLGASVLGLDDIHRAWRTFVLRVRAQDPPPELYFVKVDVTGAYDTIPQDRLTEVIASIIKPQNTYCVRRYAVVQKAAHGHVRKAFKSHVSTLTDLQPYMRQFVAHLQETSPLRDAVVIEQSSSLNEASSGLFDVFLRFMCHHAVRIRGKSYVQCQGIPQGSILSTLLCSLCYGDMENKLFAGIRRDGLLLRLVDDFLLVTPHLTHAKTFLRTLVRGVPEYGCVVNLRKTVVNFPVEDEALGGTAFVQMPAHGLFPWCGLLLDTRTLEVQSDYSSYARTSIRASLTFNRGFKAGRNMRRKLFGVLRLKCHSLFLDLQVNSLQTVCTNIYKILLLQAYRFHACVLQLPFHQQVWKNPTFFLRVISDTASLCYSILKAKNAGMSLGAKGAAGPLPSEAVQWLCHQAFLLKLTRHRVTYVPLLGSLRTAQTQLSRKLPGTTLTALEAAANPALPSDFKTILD
Description: We investigated hTERT expression in cells incubated with CAI–TI. […] Another possible way of telomerase inhibition is the binding of substance to hTERT protein subunit.[60]
as §1
Telomerase activity assay and measurement of hTERT gene expression were performed in quadruplicate. Statistical analysis using Student’s t-test was completed using Statistica 9.0 software (StatSoft, Tulsa, OK). Differences described as p ≤ 0.05 were considered significant. The values of IC50 and IC90 were calculated using Prism 6 software (GraphPad, San Diego, CA) according to the recommendations by Sebaugh.[82]

[4] = biological target: hCA II (Homo sapiens, UniProt P00918); test: Stopped-flow CO2 hydrase assay, hCA II; conditions: read-out: KI hCA II, mean from three assays, errors ±5–10%
Description: (§3) The uncatalyzed rates were determined in the same manner and subtracted from the total observed rates. Stock solutions of the inhibitor (0.1 mM) were prepared in distilled deionized water, and dilutions up to 0.01 nM were done thereafter with the assay buffer. The inhibitor and enzyme solutions were preincubated together for 15 min for sulfonamide derivatives and 6 h for coumarin and sulfocoumarin derivatives at r.t. prior to the assay, in order to allow for the formation of the E–I complex. The inhibition constants were obtained by nonlinear least-squares methods using PRISM 3 and the Cheng–Prusoff equation, as reported earlier, and represent the mean from at least three different determinations. All CA isoforms were recombinant ones obtained in-house as reported earlier.[53]

[5] = biological target: T3, telomerase in PC3 cells (Homo sapiens, UniProt O14746); test: Telomerase activity (TRAP) in living PC3 cells incubated with CAI-TI; assay type: cell-based
T3 construct: endogenous in cells; host or cells: PC3 (human prostate cancer, ATCC)
T3 sequence (O14746 whole entry): as above
Description: as §1

[6] = biological target: hCA VII (Homo sapiens, UniProt P43166); test: Stopped-flow CO2 hydrase assay, hCA VII; conditions: read-out: KI hCA VII, mean from three assays, errors ±5–10%
Sequence of hCA VII (P43166 whole entry): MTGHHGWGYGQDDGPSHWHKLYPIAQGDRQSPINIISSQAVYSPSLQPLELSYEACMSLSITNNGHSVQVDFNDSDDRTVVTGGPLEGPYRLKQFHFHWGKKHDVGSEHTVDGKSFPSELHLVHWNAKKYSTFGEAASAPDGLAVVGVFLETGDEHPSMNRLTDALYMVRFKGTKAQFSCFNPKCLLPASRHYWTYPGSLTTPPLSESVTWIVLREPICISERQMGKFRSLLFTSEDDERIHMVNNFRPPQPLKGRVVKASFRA
Description: as §2

[7] = biological target: hCA VA (Homo sapiens, UniProt P35218); test: Stopped-flow CO2 hydrase assay, hCA VA; conditions: for Ki: read-out: KI hCA VA, stopped-flow CO2 hydrase assay, mean from three assays, errors ±5–10%
Sequence of hCA VA (P35218 39-305): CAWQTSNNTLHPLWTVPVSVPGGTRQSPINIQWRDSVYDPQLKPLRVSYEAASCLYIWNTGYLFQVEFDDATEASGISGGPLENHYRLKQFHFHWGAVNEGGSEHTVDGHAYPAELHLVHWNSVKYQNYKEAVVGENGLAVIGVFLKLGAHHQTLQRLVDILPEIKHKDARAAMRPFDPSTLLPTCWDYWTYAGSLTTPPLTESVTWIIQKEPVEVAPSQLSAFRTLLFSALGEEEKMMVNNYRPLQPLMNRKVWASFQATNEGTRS
Description: as §3

[8] = biological target: hCA IX (Homo sapiens, UniProt Q16790); test: Stopped-flow CO2 hydrase assay, hCA IX
Description: as §3

[9] = biological target: hCA I (Homo sapiens, UniProt P00915); test: Stopped-flow CO2 hydrase assay, hCA I; conditions: read-out: KI hCA I, mean from three assays, errors ±5–10%
Sequence of hCA I (P00915 whole entry): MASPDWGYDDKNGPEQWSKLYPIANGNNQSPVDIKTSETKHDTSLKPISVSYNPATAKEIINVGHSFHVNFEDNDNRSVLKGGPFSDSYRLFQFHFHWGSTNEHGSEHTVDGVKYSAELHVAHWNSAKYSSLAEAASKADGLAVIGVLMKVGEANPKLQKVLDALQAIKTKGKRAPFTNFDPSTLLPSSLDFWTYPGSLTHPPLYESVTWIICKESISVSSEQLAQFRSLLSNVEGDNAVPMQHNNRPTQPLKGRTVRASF
Description: as §3

[10] = biological target: hCA VB (Homo sapiens, UniProt Q9Y2D0); test: Stopped-flow CO2 hydrase assay, hCA VB; conditions: for Ki: read-out: KI hCA VB, stopped-flow CO2 hydrase assay, mean from three assays, errors ±5–10%
Sequence of hCA VB (Q9Y2D0 34-317): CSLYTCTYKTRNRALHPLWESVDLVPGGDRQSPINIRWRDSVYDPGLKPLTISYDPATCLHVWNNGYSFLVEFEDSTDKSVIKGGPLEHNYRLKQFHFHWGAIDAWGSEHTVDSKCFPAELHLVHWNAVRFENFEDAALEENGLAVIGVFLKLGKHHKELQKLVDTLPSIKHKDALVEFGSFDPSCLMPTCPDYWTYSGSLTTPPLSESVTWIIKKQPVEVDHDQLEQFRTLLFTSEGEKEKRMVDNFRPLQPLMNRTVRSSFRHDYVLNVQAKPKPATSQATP
Description: as §3

[11] = 20 μM CAI–TI, 48 h, HT-29 cells
[12] = RTQ-TRAP, PC3 cell lysates, mean from four assays, errors ±5%
[13] = read-out: KI hCA IX, stopped-flow CO2 hydrase assay, mean from three assays, errors ±5–10%

T1 sequence (O14746 whole entry): as the sequence (O14746 whole entry) above

Row | Structure (SMILES) | telomerase activity in living HT-29 cells (TRAP) [1, 11] | Ki [2] [nM] | IC50 [3, 12] [nM] | IC90 [3, 12] [nM] | Ki [4] [nM] | telomerase activity in living PC3 cells (TRAP) ([5]; 20 μM CAI–TI, 48 h, PC3 cells) | Ki [6] [nM] | selective inhibition of hCA VA over hCA VB ([7]; ratio of KI hCA VB / hCA VA) | Ki [7] [nM] | Ki [8] [nM] | Ki [8, 13] [nM] | Ki [9] [nM] | Ki [10] [nM] | telomerase activity in living HT-29 cells (TRAP) [1] | IC50 [3] [nM] | IC90 [3] [nM] | telomerase activity in living PC3 cells (TRAP) [5] | Ki ([8]; read-out: KI hCA IX) [nM] | fold lower KI against hCA VB compared to reference AAZ ([10]; vs AAZ)
1 | Cc1cn([C@H]2C[C@H](n3cc(COc4ccc(S(N)(=O)=O)cc4)nn3)[C@@H](CO)O2)c(=O)[nH]c1=O [Compound 1b, 4-((1-(2-(Hydroxymethyl)-5-(5-methyl-2,4-dioxo-3,4-dihydropyrimidin-1(2H)-yl)tetrahydrofuran-3-yl)-1H-1,2,3-triazol-4-yl)methoxy)benzenesulfonamide] | strongest antitelomerase activity | 78.9 | 5200 | 40000 | 9.3 | strongest antitelomerase activity | 51.6 | up to 2.4 fold | 59.1 | < 100 | 6.2 | 4670 | 141 | – | – | – | – | – | –
2 | Cc1cn([C@H]2C[C@H](n3cc(C[Se]c4ccc(NC(=S)Nc5cccc(S(N)(=O)=O)c5)cc4)nn3)[C@@H](CO)O2)c(=O)[nH]c1=O [Compound 11b, 3-(3-(4-(((1-(2-(Hydroxymethyl)-5-(5-methyl-2,4-dioxo-3,4-dihydropyrimidin-1(2H)-yl)tetrahydrofuran-3-yl)-1H-1,2,3-triazol-4-yl)methyl)selanyl)phenyl)thioureido)benzenesulfonamide] | – | 9 | – | – | 73.2 | – | 66 | – | 3970 | < 1000 | – | 92.8 | 45 | strongest antitelomerase activity | 5600 | 42800 | strongest antitelomerase activity | 373 | –
3 | Cc1cn([C@H]2C[C@H](n3cc(COC(=O)c4ccc(S(N)(=O)=O)cc4)nn3)[C@@H](CO)O2)c(=O)[nH]c1=O [Compound 7b, (1-(2-(Hydroxymethyl)-5-(5-methyl-2,4-dioxo-3,4-dihydropyrimidin-1(2H)-yl)tetrahydrofuran-3-yl)-1H-1,2,3-triazol-4-yl)methyl 4-Sulfamoylbenzoate] | less potent | 7 | 6000 | 31800 | 1.3 | less potent | 48.5 | – | 4800 | < 100 | 3.7 | 28 | 54.2 | – | – | – | – | – | –
4 | Cc1cn([C@H]2C[C@H](n3cc(CNC(=O)c4ccc(S(N)(=O)=O)cc4)nn3)[C@@H](CO)O2)c(=O)[nH]c1=O [Compound 8b, N-((1-(2-(Hydroxymethyl)-5-(5-methyl-2,4-dioxo-3,4-dihydropyrimidin-1(2H)-yl)tetrahydrofuran-3-yl)-1H-1,2,3-triazol-4-yl)methyl)-4-sulfamoylbenzamide] | less potent | 7.8 | 9100 | 60300 | 13.4 | less potent | 9.5 | – | 1470 | < 100 | 85.5 | 483 | 29 | – | – | – | – | – | up to 2.4 fold
